Measurements published in patent US4169096A, “Antibiotic compounds” (priority 1977, dated 1979).
Converted amounts (≈) assume the structure as drawn.

Tests used:
[1] = test system: Escherichia coli Juhl A15119; assay: MIC, serial two-fold agar dilution, aerobic bacteria; type: cell-based; details: JUHLA15119
[2] = test system: Klebsiella pneumoniae A9678; assay: as above; type: cell-based; details: Nutrient agar (Eiken), read-out: MIC
[3] = test system: Serratia marcescens A20019; assay: as above; type: cell-based; details: Nutrient agar (Eiken), read-out: MIC
[4] = test system: Pseudomonas aeruginosa A9843; assay: as above; type: cell-based; details: test medium not given
Proteus mirabilis A9554 = assay: as above; type: cell-based; details: Nutrient agar (Eiken)
Proteus morganii A9553 = assay: as above; type: cell-based; details: Morganella morganii, Nutrient agar (Eiken)
[5] = test system: Staphylococcus aureus 209P; assay: as above; type: cell-based; details: Nutrient agar (Eiken)
Sarcina lutea PCI-1001 = assay: as above; type: cell-based; details: Micrococcus luteus, PCI1001; Nutrient agar (Eiken); read-out: MIC
[6] = test system: Bacillus cereus ATCC 10702 A; assay: as above; type: cell-based; details: ATCC10702
[7] = test system: Streptococcus pyogenes A20201; assay: as above; type: cell-based; details: GC medium (Eiken)
[8] = test system: Streptococcus viridans A21354; assay: as above; type: cell-based; details: GC medium (Eiken)
[9] = test system: Diplococcus pneumoniae A9585; assay: as above; type: cell-based; details: Streptococcus pneumoniae, GC medium (Eiken)
[10] = test system: Neisseria meningitidis A21496; assay: as above; type: cell-based; details: GC medium (Eiken)
[11] = test system: Neisseria gonorrhoeae A20154; assay: as above; type: cell-based; details: GC medium (Eiken)
[12] = test system: Hemophilus influenzae A9832; assay: as above; type: cell-based; details: Haemophilus influenzae, GC medium (Eiken)
B. fragilis A20928-1 [13] = assay: Inoculum size effect on MIC, GAM agar; type: cell-based; details: Bacteroides fragilis, A209281; inoculum size 1.2 × 10^6 cell/ml
C. perfringens A9635 [14] = assay: microbe, parasite or virus in culture; type: cell-based, Clostridium perfringens
B. fragilis A20928-1 [15] = assay: Inoculum size effect on MIC, GAM broth; type: cell-based; details: Bacteroides fragilis
S. pyogenes A20201 [16] = assay: Bactericidal activity (MIC & MBC); type: cell-based; details: Streptococcus pyogenes, A20201, 18 h
C. perfringens A9635 [17] = assay: animal or person; type: in vivo, mice
S. pyogenes A20201 [18] = assay: Systemic infection with S. pyogenes in mice; type: in vivo; details: just before challenge, determined after 5 days
Solubility = type: physicochemical
Stability in solution = type: physicochemical
[19] = pKa' by titration in aqueous ethanol; type: physicochemical; details: 50% aqueous ethanol
aerobic organisms = assay: Antibacterial activity against aerobic bacteria (in words); type: cell-based; details: Bacillus species, streptococci, Neisseria meningtidis, N. gonorrhoeae, Hemophilus influenzae
[20] = test system: aerobic and anaerobic bacteria; assay: Antibacterial activity and spectrum (in words); type: cell-based
[21] = test system: two anaerobic organisms (B. fragilis and C. perfringens); type: cell-based; details: broth dilution method
[22] = test system: two anaerobic and one aerobic organisms; assay: Bactericidal potential (in words); type: cell-based
[23] = test system: C. perfringens or S. pyrogenes; type: in vivo, mice; details: oral
[24] = test system: Bacteroides fragilis A20929; assay: microbe, parasite or virus in culture
[25] = test system: Bacteroides fragilis A20930; assay: microbe, parasite or virus in culture
[26] = test system: Sphaerophorus necrophorus A15202; assay: microbe, parasite or virus in culture; details: Fusobacterium necrophorum
[27] = test system: Sphaerophorus pseudonecrophorus A20013; assay: microbe, parasite or virus in culture; details: Fusobacterium necrophorum
[28] = test system: Fusobacterium mortiferum ATCC 9817; assay: microbe, parasite or virus in culture; details: ATCC9817
[29] = test system: Acidoaminococcus fermentans ATCC 25085; assay: microbe, parasite or virus in culture
[30] = test system: Veillonella parvula ATCC 17745; assay: microbe, parasite or virus in culture; details: ATCC17745
[31] = test system: Peptocuccus prevotii ATCC 9321; assay: microbe, parasite or virus in culture
[32] = test system: Peptococcus aerogenes ATCC 14963; assay: microbe, parasite or virus in culture; details: Peptoniphilus asaccharolyticus, ATCC14963
[33] = test system: Escherichia coli K-12 A9632; assay: MIC, serial two-fold agar dilution, aerobic bacteria; details: K12A9632

COC(=O)C1C(C)OC2(C)CC(=O)C3OC12OC(C(C)/C=C(C)/C=C/C(=O)C1=C(O)CN(C)C1=O)C3C (centres unmarked) [Bu-2313A]
MIC [1]: > 100 µg/mL
MIC [2]: > 100 µg/mL
MIC [3]: > 100 µg/mL
MIC [4]: > 100 µg/mL
MIC (Proteus mirabilis A9554): > 100 µg/mL
MIC (Proteus morganii A9553): > 100 µg/mL
MIC [5]: 25 µg/mL (≈ 48.3 µM)
MIC (Sarcina lutea PCI-1001): 25 µg/mL (≈ 48.3 µM)
MIC [6]: 0.8 µg/mL (≈ 1.55 µM)
MIC [7]: 0.8 µg/mL (≈ 1.55 µM)
MIC [8]: 0.8 µg/mL (≈ 1.55 µM)
MIC [9]: 0.8 µg/mL (≈ 1.55 µM)
MIC [10]: 3.1 µg/mL (≈ 5.99 µM)
MIC [11]: 0.8 µg/mL (≈ 1.55 µM)
MIC [12]: 0.8 µg/mL (≈ 1.55 µM)
MIC (B. fragilis A20928-1 [13]): 0.1 µg/mL (≈ 0.193 µM)
MIC (C. perfringens A9635 [14]; Clostridium perfringens, A9635, read-out: MIC in GAM agar): 0.1 µg/mL (≈ 0.193 µM)
MIC in GAM agar (C. perfringens A9635 [14]; inoculum size 7 × 10^6 cell/ml): 0.1 µg/mL (≈ 0.193 µM)
MIC (B. fragilis A20928-1 [15]; A209281, inoculum size […] 10^7 cell/ml, read-out: MIC in GAM broth): 0.8 µg/mL (≈ 1.55 µM)
MIC (B. fragilis A20928-1 [15]; A209281, read-out: MIC in GAM broth, inoculum size […] 10^6 cell/ml): 0.06 µg/mL (≈ 0.116 µM)
MBC (S. pyogenes A20201 [16]): 12.5 µg/mL (≈ 24.2 µM)
ED50 (C. perfringens A9635 [17]; Clostridium perfringens, A9635, in Mus musculus, sc, 120 h, read-out: PD50): 6.25 mg/kg
PD50 (C. perfringens A9635 [17]; po, just before challenge, determined after 5 days, NA: no activity): NA at 50
ED50 (S. pyogenes A20201 [18]; Streptococcus pyogenes, A20201, 120 h, sc, read-out: PD50): 7.6 mg/kg
PD50 (S. pyogenes A20201 [18]; po, NA: no activity): NA at 25
solubility (Solubility; hexane and alkaline water): slightly soluble
solubility (Solubility; most organic solvents such as lower alcohols, ethyl acetate, chloroform and benzene): readily soluble
solubility (Solubility; water): practically insoluble
stability (Stability in solution; acidic solution): stable
stability (Stability in solution; alkaline solution, N/10 NaOH, room temperature, overnight): inactivated
pKa [19]: 5.2
susceptibility of aerobic strains (aerobic organisms): susceptible
antibacterial activity [20]: exhibit antibacterial activity against a variety of anaerobic bacteria and some aerobic bacteria
comparative activity and antibacterial spectrum ([20]; in vitro): very similar to those of tirandamycin
influence of inoculum size on MIC [21]: greatly affected by inoculum size
antibacterial action [22]: bacteriostatic rather than bactericidal
activity by the oral route [23]: inactive by the oral route
LD50 (in vivo; ip, LD50, ip): 14 mg/kg
LD50 (in vivo; po, LD50, po): 90 mg/kg
LD50 (in vivo; sc, LD50, sc): 90 mg/kg
MIC [24]: 0.2 µg/mL (≈ 0.386 µM)
MIC [25]: 0.2 µg/mL (≈ 0.386 µM)
MIC [26]: 0.2 µg/mL (≈ 0.386 µM)
MIC [27]: 0.2 µg/mL (≈ 0.386 µM)
MIC [28]: 0.2 µg/mL (≈ 0.386 µM)
MIC [29]: 0.2 µg/mL (≈ 0.386 µM)
MIC [30]: 0.2 µg/mL (≈ 0.386 µM)
MIC [31]: 0.2 µg/mL (≈ 0.386 µM)
MIC [32]: 0.2 µg/mL (≈ 0.386 µM)
MIC [33]: > 100 µg/mL
